# Experiments:
# [1] = molecular target: T1, Human neurokinin (NK1) (Homo sapiens, UniProt P25103); assay: Radioligand binding, human neurokinin NK1 membranes, filtration, [125I]-Substance P; settings: compound at 10 μM, [125I]-Substance P; for A8: inhibition of radioligand binding: filtration
# T1 construct: purchased Perkin Elmer Biosignal
# Summary of the method: (§1)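 Filtration binding on cloned human receptor membranes (1 Unit/well), [125I]-Substance P for NK1 and [3H]-Diprenorphine for KOP, 1 h at room temperature. Filters PEI-presoaked, washed with cold 50 mM Tris-HCl pH 7.4, counted by scintillation; percent inhibition calculated, reference ligand defining non-specific binding.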
# [2] = molecular target: T2, Human μ-opioid (MOP) (Homo sapiens, UniProt P35372); assay: Radioligand binding, human μ-opioid (MOP) membranes, FlashPlate, [3H]-Naloxone; settings: compound at 10 μM, [3H]-Naloxone; for A7: inhibition of radioligand binding: FlashPlate
# T2 construct: purchased Perkin Elmer Biosignal
# T2 sequence (P35372 whole entry): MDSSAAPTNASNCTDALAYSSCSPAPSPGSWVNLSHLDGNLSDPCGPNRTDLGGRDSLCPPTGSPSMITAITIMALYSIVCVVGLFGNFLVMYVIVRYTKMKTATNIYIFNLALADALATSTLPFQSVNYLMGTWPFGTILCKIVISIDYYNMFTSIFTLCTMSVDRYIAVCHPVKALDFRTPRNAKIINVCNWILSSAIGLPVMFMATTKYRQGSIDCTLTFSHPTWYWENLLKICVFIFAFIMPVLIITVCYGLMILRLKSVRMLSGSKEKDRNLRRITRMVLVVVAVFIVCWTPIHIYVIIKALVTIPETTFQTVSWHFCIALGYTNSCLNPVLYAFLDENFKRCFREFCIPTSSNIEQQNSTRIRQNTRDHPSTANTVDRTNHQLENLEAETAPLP
# Summary of the method: (§2)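 Cloned human receptor membranes were coated onto FlashPlate wells and incubated with radioligand and compound (added from a 0.5 mM DMSO daughter plate) for 1 hour at room temperature in the dark. Scintillation counting gave percent inhibition, with DMSO defining total and reference ligand defining non-specific binding.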
# [3] = molecular target: T3, Human Melanocortin (MC4) (Homo sapiens, UniProt P32245); assay: Radioligand binding, human melanocortin MC4 membranes, FlashPlate, [125I]-NDP-αMSH; settings: compound at 10 μM, [125I]-NDP-αMSH; for A4: inhibition of radioligand binding: FlashPlate
# T3 construct: purchased Perkin Elmer Biosignal
# T3 sequence (P32245 whole entry): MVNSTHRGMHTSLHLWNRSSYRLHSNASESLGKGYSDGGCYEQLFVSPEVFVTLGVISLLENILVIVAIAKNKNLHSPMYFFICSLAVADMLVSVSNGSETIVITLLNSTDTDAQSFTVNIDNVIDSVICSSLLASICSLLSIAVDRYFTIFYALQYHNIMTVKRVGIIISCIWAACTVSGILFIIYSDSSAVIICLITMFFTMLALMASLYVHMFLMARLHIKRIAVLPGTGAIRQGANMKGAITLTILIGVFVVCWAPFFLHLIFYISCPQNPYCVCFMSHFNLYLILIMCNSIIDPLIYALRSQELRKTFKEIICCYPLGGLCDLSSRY
# Summary of the method: as §2
# [4] = molecular target: T4, Human κ-Opioid (KOP) (Homo sapiens, UniProt P41145); assay: Radioligand binding, human κ-opioid (KOP) membranes, filtration, [3H]-Diprenorphine; settings: compound at 10 μM, [3H]-Diprenorphine; for A2: inhibition of radioligand binding: filtration
# T4 construct: purchased Perkin Elmer Biosignal
# T4 sequence (P41145 whole entry): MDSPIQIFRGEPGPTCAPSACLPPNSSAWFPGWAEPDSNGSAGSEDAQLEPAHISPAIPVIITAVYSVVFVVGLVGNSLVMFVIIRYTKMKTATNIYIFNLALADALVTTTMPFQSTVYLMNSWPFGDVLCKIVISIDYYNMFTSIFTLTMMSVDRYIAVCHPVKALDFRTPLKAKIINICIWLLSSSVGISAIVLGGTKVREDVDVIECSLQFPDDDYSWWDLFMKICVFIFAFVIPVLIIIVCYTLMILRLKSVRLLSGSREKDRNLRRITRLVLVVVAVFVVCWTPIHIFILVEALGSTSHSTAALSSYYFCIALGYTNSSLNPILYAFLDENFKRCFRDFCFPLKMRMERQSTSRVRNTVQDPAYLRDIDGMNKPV
# Summary of the method: as §1
# [5] = molecular target: T5, Human Melanocortin (MC3) (Homo sapiens, UniProt P41968); assay: Radioligand binding, human melanocortin MC3 membranes, FlashPlate, [125I]-NDP-αMSH; settings: compound at 10 μM, [125I]-NDP-αMSH; for A3: inhibition of radioligand binding: FlashPlate
# T5 construct: purchased Perkin Elmer Biosignal
# T5 sequence (P41968 whole entry): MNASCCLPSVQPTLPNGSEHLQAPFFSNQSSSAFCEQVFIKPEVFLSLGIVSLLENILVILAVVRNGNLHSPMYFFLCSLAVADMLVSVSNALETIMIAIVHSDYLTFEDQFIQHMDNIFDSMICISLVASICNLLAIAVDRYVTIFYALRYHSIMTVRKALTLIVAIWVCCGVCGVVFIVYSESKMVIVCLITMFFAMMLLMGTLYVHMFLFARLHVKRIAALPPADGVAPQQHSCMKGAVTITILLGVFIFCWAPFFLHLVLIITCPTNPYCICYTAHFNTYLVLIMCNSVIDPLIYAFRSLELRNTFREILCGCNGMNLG
# Summary of the method: as §2
# [6] = molecular target: T6, Human melanocortin (MC5) (Homo sapiens, UniProt P33032); assay: Radioligand binding, human melanocortin MC5 membranes, FlashPlate, [125I]-NDP-αMSH; settings: compound at 10 μM, [125I]-NDP-αMSH; for A5: inhibition of radioligand binding: FlashPlate
# T6 construct: purchased Perkin Elmer Biosignal
# T6 sequence (P33032 whole entry): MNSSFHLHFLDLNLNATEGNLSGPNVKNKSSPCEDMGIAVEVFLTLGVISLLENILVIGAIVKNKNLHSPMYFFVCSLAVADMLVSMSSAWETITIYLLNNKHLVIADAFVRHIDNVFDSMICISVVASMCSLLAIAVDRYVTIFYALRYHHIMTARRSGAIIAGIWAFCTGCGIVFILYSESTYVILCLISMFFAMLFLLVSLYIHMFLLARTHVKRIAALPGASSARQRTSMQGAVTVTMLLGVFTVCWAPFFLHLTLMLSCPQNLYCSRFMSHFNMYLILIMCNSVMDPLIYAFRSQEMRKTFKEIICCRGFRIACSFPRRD
# Summary of the method: as §2
# [7] = molecular target: T7, Human neuropeptide Y (NPY-Y1) (Homo sapiens, UniProt P25929); assay: Radioligand binding, human neuropeptide Y NPY-Y1 membranes, FlashPlate, [125I]-PYY; settings: compound at 10 μM, [125I]-PYY; for A9: inhibition of radioligand binding: FlashPlate
# T7 construct: purchased Perkin Elmer Biosignal
# T7 sequence (P25929 1-384): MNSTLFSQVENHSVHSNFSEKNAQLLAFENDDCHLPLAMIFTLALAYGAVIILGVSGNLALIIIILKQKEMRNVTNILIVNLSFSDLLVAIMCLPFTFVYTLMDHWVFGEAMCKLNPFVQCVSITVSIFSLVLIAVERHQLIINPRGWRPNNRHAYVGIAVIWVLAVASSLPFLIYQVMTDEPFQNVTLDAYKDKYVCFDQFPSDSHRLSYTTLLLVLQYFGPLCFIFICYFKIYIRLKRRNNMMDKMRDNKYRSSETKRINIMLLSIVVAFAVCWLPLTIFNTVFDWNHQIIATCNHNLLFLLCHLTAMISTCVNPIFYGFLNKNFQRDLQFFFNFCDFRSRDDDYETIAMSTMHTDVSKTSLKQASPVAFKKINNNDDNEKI
# Summary of the method: as §2
# [8] = molecular target: T8, Human δ-opioid (DOP) (Homo sapiens, UniProt P41143); assay: Radioligand binding, human δ-opioid (DOP) membranes, FlashPlate, [3H]-Bremazocine; settings: compound at 10 μM, [3H]-Bremazocine; for A1: inhibition of radioligand binding: FlashPlate
# T8 construct: purchased Perkin Elmer Biosignal
# T8 sequence (P41143 whole entry): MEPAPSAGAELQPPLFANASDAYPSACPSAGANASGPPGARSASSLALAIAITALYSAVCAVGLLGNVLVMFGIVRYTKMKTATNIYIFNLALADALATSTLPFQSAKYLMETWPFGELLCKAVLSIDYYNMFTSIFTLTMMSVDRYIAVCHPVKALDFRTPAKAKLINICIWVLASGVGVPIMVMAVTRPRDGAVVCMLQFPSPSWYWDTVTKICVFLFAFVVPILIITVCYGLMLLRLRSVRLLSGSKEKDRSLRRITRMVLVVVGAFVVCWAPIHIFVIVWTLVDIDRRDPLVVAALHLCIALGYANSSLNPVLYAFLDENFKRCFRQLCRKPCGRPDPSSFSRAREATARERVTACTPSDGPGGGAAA
# Summary of the method: as §2
# [9] = molecular target: T9, Mouse urotensin (mUR2) (Mus musculus, UniProt Q8VIH9); assay: Radioligand binding, mouse urotensin mUR2 membranes, FlashPlate, [125I]-Urotensin II; settings: compound at 10 μM, [125I]-Urotensin II; for A11: inhibition of radioligand binding: FlashPlate
# T9 construct: purchased Perkin Elmer Biosignal
# T9 sequence (Q8VIH9 1-385): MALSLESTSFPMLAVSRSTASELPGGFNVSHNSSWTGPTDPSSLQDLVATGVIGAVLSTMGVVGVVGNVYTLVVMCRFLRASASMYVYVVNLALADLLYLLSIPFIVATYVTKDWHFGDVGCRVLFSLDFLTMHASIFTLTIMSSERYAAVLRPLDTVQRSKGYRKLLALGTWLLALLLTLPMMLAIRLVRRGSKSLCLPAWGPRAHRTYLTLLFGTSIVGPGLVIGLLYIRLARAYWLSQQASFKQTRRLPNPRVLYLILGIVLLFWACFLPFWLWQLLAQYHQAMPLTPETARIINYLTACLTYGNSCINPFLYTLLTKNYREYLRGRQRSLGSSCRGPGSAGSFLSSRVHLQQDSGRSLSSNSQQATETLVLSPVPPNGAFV
# Summary of the method: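 Cloned mouse urotensin (mUR2) receptor membranes from Perkin Elmer Biosignal were immobilized in FlashPlate microplates using a proprietary coating. Each well got 19.5 μl buffer, then 0.5 μl of DMSO, reference ligand, or compound. Adding 5 μl of [125I]-Urotensin II, diluted to 5× final concentration in binding buffer, started binding. Plates were sealed with TopSeal-A and incubated 1 hour at room temperature in the dark. Wells were counted for 30 seconds each on a TopCount after a 60-second delay, and percentage inhibition was calculated.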
# [10] = molecular target: T10, Human melanin-concentrating hormone (MCH1) (Homo sapiens, UniProt Q99705); assay: Radioligand binding, human melanin-concentrating hormone MCH1 membranes, FlashPlate, [125I]-S36057; settings: compound at 10 μM; for A6: inhibition of radioligand binding: [125I]-S36057, FlashPlate
# T10 construct: purchased Perkin Elmer Biosignal
# T10 sequence (Q99705 whole entry): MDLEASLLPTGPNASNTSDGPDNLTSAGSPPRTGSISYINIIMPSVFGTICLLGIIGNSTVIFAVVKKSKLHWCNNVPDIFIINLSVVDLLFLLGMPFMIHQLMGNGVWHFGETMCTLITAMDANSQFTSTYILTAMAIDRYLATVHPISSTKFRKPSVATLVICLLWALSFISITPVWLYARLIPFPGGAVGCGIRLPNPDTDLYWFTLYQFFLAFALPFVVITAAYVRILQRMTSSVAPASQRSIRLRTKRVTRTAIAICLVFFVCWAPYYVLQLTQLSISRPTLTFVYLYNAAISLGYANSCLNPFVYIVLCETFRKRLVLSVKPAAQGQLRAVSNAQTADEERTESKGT
# Summary of the method: as §2
# [11] = molecular target: T11, Human opioid (ORL1) (Homo sapiens, UniProt P41146); assay: Radioligand binding, human opioid ORL1 membranes, FlashPlate, [125I]-Nociceptin; settings: compound at 10 μM, [125I]-Nociceptin; for A10: inhibition of radioligand binding: FlashPlate
# T11 construct: purchased Perkin Elmer Biosignal
# T11 sequence (P41146 whole entry): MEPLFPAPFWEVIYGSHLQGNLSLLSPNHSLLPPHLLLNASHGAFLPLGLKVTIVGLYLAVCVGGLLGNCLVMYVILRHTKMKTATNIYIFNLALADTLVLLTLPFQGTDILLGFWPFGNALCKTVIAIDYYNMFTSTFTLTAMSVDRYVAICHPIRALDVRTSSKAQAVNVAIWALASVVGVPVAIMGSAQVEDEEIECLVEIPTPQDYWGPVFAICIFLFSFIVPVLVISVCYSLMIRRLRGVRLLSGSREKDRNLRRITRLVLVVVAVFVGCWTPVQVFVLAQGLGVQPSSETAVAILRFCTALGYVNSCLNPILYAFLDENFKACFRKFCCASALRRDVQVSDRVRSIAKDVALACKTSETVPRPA
# Summary of the method: as §2
# T1 sequence (P25103 whole entry): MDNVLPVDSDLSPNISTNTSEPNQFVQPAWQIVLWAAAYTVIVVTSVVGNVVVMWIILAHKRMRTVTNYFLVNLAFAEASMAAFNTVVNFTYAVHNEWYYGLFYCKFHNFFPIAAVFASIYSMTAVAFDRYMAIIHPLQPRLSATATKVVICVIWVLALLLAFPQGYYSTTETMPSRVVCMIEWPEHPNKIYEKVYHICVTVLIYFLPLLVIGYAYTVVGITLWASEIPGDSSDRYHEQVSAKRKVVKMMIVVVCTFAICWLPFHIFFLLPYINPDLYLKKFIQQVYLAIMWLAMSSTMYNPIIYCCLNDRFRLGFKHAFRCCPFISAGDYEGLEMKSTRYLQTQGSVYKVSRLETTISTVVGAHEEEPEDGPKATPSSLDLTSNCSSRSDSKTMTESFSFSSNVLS
Compound,A8: inhibition of radioligand binding [1],A7: inhibition of radioligand binding [2],A4: inhibition of radioligand binding [3],A2: inhibition of radioligand binding [4],A3: inhibition of radioligand binding [5],A5: inhibition of radioligand binding [6],A9: inhibition of radioligand binding [7],A1: inhibition of radioligand binding [8],A11: inhibition of radioligand binding [9],A6: inhibition of radioligand binding [10],A10: inhibition of radioligand binding [11],also measured
CSC1OC(COCc2ccc(-c3ccccc3)cc2)C(O)C(OCc2ccccc2)C1NC(=O)CCCNC(=N)N (stereo not drawn) [compound 259],+ (“+” indicates greater than 50% inhibition at 10 μM),− (“−” indicates less than 50% inhibition at 10 μM),+ (“+” indicates greater than 50% inhibition at 10 μM),− (“−” indicates less than 50% inhibition at 10 μM),− (“−” indicates less than 50% inhibition at 10 μM),− (“−” indicates less than 50% inhibition at 10 μM),− (“−” indicates less than 50% inhibition at 10 μM),− (“−” indicates less than 50% inhibition at 10 μM),− (“−” indicates less than 50% inhibition at 10 μM),− (“−” indicates less than 50% inhibition at 10 μM),− (“−” indicates less than 50% inhibition at 10 μM),–
COCC1OC(OCc2ccccc2)C(NC(=O)CCN)C(OCc2ccc3ccccc3c2)C1O (stereo not drawn) [compound 190],+ (“+” indicates greater than 50% inhibition at 10 μM),− (“−” indicates less than 50% inhibition at 10 μM),− (“−” indicates less than 50% inhibition at 10 μM),− (“−” indicates less than 50% inhibition at 10 μM),− (“−” indicates less than 50% inhibition at 10 μM),+ (“+” indicates greater than 50% inhibition at 10 μM),− (“−” indicates less than 50% inhibition at 10 μM),− (“−” indicates less than 50% inhibition at 10 μM),− (“−” indicates less than 50% inhibition at 10 μM),− (“−” indicates less than 50% inhibition at 10 μM),− (“−” indicates less than 50% inhibition at 10 μM),–
COC[C@H]1OC(OCc2ccc(-c3ccccc3)cc2)[C@H](NC(=O)CCNC(=N)N)[C@@H](OCc2cccc(O)c2)[C@@H]1O (stereo partly drawn) [compound 130],–,–,–,–,–,–,–,–,–,–,–,"A8 radioligand binding, percentage inhibition [1]: − (“−” indicates less than 50% inhibition at 10 μM); A7 radioligand binding, percentage inhibition [2]: + (“+” indicates greater than 50% inhibition at 10 μM); A4 radioligand binding, percentage inhibition [3]: − (“−” indicates less than 50% inhibition at 10 μM); A2 radioligand binding, percentage inhibition [4]: − (“−” indicates less than 50% inhibition at 10 μM); A3 radioligand binding, percentage inhibition [5]: − (“−” indicates less than 50% inhibition at 10 μM); A5 radioligand binding, percentage inhibition [6]: − (“−” indicates less than 50% inhibition at 10 μM); A9 radioligand binding, percentage inhibition [7]: − (“−” indicates less than 50% inhibition at 10 μM); A1 radioligand binding, percentage inhibition [8]: − (“−” indicates less than 50% inhibition at 10 μM); A11 radioligand binding, percentage inhibition [9]: − (“−” indicates less than 50% inhibition at 10 μM); A6 radioligand binding, percentage inhibition ([10]; [125I]-S36057): − (“−” indicates less than 50% inhibition at 10 μM); A10 radioligand binding, percentage inhibition [11]: − (“−” indicates less than 50% inhibition at 10 μM)"
